Reference: patent US11000515B2, “Compounds that interact with the Ras superfamily for the treatment of cancers, inflammatory diseases, rasopathies, and fibrotic disease” (Shy Therapeutics LLC, priority 2017, dated 2021)
Where two headings read alike, the source gives them in different places.

Tests used:
KRas G12D mutant protein = KRas G12D mutant protein (Homo sapiens (Human), UniProt P01116, G12D); experiment: Ras GTP binding domain inhibition assay (labeled GTP)
Experimental: The following method was developed as specific assay for KRas G12D mutant protein.
(§1) Buffer-I: • 50 mM Tris, pH 7.5 • 150 mM NaCl (optional) • 1 mM MgCl2 • 1 mM DTT. • KRas G12D mutant protein was expressed as a His-tagged protein. Purified His-KRas G12D protein was diluted in buffer-I to a final concentration of 3-10 μg/ml. • 200 μl of the diluted His-KRas G12D protein was added to a nickel coated 96 well plate and incubated overnight at 4° C. • The next day, wells were washed 3× in 200 μl of Buffer-I. • Then 200 μl of Buffer-I were added to each well in the presence of 1% DMSO. • Tested compounds were added to the protein-coated wells at a concentration of 20 μM, and incubated for 3 hours at room temperature. While performing IC50 measurements a serial dilution of all tested concentrations was prepared.
(§2) Then 22 μl of Cy3-GTP or Cy5-GTP was added to each well. The labeled GTP was incubated for 45 min. at room temperature. • Following GTP incubation, wells were washed 3× in Buffer-I, and 200 μl of Buffer-I were added to each well. • Following washes, the amount of bound labeled-GTP was measured with an Eppendorf AF2200 plate reader.

KRas G12C mutant = KRas G12C mutant (Homo sapiens (Human), UniProt P01116, G12C); experiment: as above
Experimental: as §1, §2
(§3) By substituting KRas G12D mutant protein with KRas G12C mutant, KRas wild type, KRas Q61H mutant, KRas G12D/Q61H double mutant or KRas G12C/Q61H double mutant under the assay conditions described above, KRas G12C mutant KRas wild type, KRas Q61H mutant, KRas G12D/Q61H double mutant and KRas G12C/Q61H double mutant inhibition, respectively, were each determined.

[1] = biological target: KRas G12C/Q61H double mutant (Homo sapiens (Human), UniProt P01116, G12C/Q61H); experiment: as above
Experimental: as §1, §2, §3

[2] = biological target: KRas G12D/Q61H double mutant (Homo sapiens (Human), UniProt P01116, G12D/Q61H); experiment: as above
Experimental: as §1, §2, §3

KRas Q61H mutant = KRas Q61H mutant (Homo sapiens (Human), UniProt P01116, Q61H); experiment: as above
Experimental: as §1, §2, §3

KRas wild type = KRas wild type (Homo sapiens (Human), UniProt P01116); experiment: as above
Experimental: as §1, §2, §3

[3] = tested on: TNFα production in RAW 264.7 macrophage cell line; experiment: Mouse TNF alpha quantification assay (LPS-stimulated RAW 264.7, ELISA); format: cell-based; settings: RAW264.7, LPS-stimulated RAW 264.7 macrophage cell line, read-out: TNF-α % Inhibition at 30 μM
[4] = tested on: IL6 production in RAW 264.7 macrophage cell line; experiment: Mouse IL6 quantification assay (LPS-stimulated RAW 264.7, ELISA); format: cell-based; settings: RAW264.7, LPS-stimulated RAW 264.7 macrophage cell line, read-out: IL-6 % Inhibition at 30 μM
[5] = compound at 20 μM, read-out: % Inhibition at 20 μM, KRas G12D Q61H
[6] = 20 μM compound, read-out: % Inhibition at 20 μM, KRas G12D Q61H

Chain of KRas G12C mutant (P01116-2 other isoform, or with tags, fused parts or gaps G12C): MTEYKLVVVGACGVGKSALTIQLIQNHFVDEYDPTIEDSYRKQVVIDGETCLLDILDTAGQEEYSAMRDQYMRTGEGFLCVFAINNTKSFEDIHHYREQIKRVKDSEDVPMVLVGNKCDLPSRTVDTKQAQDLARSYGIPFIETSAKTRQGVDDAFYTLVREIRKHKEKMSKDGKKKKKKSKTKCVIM
Chain of KRas Q61H mutant (P01116-2 other isoform, or with tags, fused parts or gaps Q61H): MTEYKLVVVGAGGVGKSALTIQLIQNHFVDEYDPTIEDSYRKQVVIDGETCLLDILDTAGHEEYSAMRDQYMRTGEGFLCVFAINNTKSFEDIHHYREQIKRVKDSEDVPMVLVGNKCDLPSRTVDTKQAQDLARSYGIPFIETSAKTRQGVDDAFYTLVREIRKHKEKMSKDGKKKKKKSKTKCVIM
Chain of KRas G12D mutant protein (P01116-2 other isoform, or with tags, fused parts or gaps G12D): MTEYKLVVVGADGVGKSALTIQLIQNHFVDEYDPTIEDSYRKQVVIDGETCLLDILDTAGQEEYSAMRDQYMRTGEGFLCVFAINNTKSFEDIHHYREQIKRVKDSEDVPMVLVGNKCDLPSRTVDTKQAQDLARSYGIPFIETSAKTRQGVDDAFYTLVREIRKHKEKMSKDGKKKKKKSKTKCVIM
Chain of KRas wild type (P01116-2 other isoform, or with tags, fused parts or gaps): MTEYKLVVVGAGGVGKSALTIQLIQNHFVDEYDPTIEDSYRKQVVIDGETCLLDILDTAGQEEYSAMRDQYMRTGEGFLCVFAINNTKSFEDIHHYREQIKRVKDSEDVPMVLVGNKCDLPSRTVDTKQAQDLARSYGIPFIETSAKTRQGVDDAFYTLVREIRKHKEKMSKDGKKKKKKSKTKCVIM
Chain of KRas G12D/Q61H double mutant (P01116-2 other isoform, or with tags, fused parts or gaps G12D/Q61H): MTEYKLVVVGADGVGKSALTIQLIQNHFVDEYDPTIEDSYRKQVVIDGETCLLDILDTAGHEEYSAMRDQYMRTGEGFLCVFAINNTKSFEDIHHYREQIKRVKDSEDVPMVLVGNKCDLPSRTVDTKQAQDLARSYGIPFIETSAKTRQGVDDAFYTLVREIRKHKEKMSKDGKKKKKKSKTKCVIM
Chain of KRas G12C/Q61H double mutant (P01116-2 other isoform, or with tags, fused parts or gaps G12C/Q61H): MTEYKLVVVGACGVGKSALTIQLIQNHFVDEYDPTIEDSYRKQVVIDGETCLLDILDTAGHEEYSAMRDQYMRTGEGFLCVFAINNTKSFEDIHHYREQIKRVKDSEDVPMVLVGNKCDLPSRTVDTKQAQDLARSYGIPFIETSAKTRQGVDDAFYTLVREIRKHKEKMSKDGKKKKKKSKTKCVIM

CN(C)COc1ccc(-c2csc3c(O)nc(-c4ccccn4)nc23)cn1
inhibition at 20 µM (KRas G12D mutant protein; compound at 20 μM): 51 to 75%
inhibition at 20 µM (KRas G12C mutant; compound at 20 μM): 51 to 75%
inhibition at 20 µM ([1]; compound at 20 μM): 51 to 75%
inhibition at 20 µM [2, 5]: 51 to 75%
inhibition at 20 µM (KRas Q61H mutant; compound at 20 μM): 51 to 75%
inhibition at 20 µM (KRas wild type; compound at 20 μM): 51 to 75%

O=C(CCC1N=NN=N1)Nc1nc(-c2ccccn2)nc2sccc12
inhibition at 20 µM (KRas G12D mutant protein; compound at 20 μM): 51 to 75%
inhibition at 20 µM (KRas G12C mutant; compound at 20 μM): 25 to 50%
inhibition at 20 µM ([1]; compound at 20 μM): 51 to 75%
inhibition at 20 µM [2, 5]: 51 to 75%
inhibition at 20 µM (KRas Q61H mutant; compound at 20 μM): 51 to 75%
inhibition at 20 µM (KRas wild type; compound at 20 μM): 51 to 75%

COc1ccc(CCNC(=O)c2cc(S(=O)(=O)N3CCCCCC3)ccc2OC)cc1OC
inhibition at 20 µM [2, 5]: 25 to 50%

CCOC(=O)c1sc(N(C2CC2)S(=O)(=O)c2cc(F)ccc2F)nc1C
inhibition at 20 µM [2, 5]: 25 to 50%

Cc1sc2nc(-c3cnccn3)[nH]c(=O)c2c1-c1ccccc1
inhibition at 20 µM [2, 5]: 25 to 50%

N#Cc1ccc(C2CCCN2c2ccco2)cc1C(F)(F)F (stereo not drawn)
inhibition at 20 µM [2, 5]: 1 to 25%

Cc1ccc(OCc2nnc(SCC3CCCOC3)o2)cc1 (stereo not drawn)
inhibition at 20 µM [2, 5]: 1 to 25%

CC(NC(=O)c1csc(-c2ccccc2)n1)c1ccccn1 (stereo not drawn)
inhibition at 20 µM [2, 6]: 1 to 25%

O=C(NCC(F)(F)F)c1ccc(CN(Cc2cc(Cl)cc3c2OCOC3)C2CC2)cc1
inhibition at 20 µM [2, 6]: 25 to 50%

CCOc1cc(CN(C(=O)CCc2nc(-c3ccsc3)no2)C2CC2)ccc1OC(F)F
inhibition at 20 µM [2, 6]: 25 to 50%

COCc1ccc(C2CCCN2c2ccc(C#N)c(C(F)(F)F)c2)o1 (stereo not drawn)
inhibition at 20 µM [2, 6]: 25 to 50%

CC(C)c1cnc(CN2CC(C)N(Cc3ncc(C(C)C)o3)c3ccccc32)o1 (stereo not drawn)
inhibition at 20 µM [2, 6]: 25 to 50%

COCCN(Cc1ccccc1)CC(O)OCC(c1ccc(OC)cc1)c1ccc(OC)cc1 (stereo not drawn)
inhibition at 20 µM [2, 6]: 1 to 25%

Cc1cc(OC(C)COc2ccc(Oc3ccccc3)cc2)ncc1C(F)(F)F (stereo not drawn)
inhibition at 20 µM [2, 6]: 51 to 75%

COc1cccc(-c2nc(C(=O)N3CCC(c4ccccc4)CC3)cs2)c1OC
inhibition at 20 µM [2, 6]: 25 to 50%

Cc1ccccc1N(CC(=O)NCC1CCCCCCC1)S(C)(=O)=O
inhibition at 20 µM [2, 6]: 1 to 25%

OCC1(Cc2ccccc2)CCCN1c1nc(-c2ccccc2)nc2c1CCC2 (stereo not drawn)
inhibition at 20 µM [2, 6]: 25 to 50%

Oc1nc(-c2ccccn2)nc2c(C3CCCC3)csc12
% Inhibition at 20 μM, KRas Q61H (KRas Q61H mutant; 20 μM compound): D (D = 76-100% inhibition)

COc1nc(-c2ccccn2)nc2c(C)c(C(=O)N3CCN(c4ccccc4)CC3)sc12
inhibition at 20 µM ([1]; 20 μM compound): 51 to 75%
inhibition at 20 µM [2, 6]: 51 to 75%
inhibition at 20 µM (KRas Q61H mutant; 20 μM compound): 51 to 75%

COc1cnc(CNC(=O)c2csc3nc(-c4ccccn4)nc(N)c23)[nH]c1=O
inhibition at 20 µM ([1]; 20 μM compound): 25 to 50%
inhibition at 20 µM (KRas Q61H mutant; 20 μM compound): 25 to 50%

OC[C@H]1O[C@@H](c2csc3c2N=C(c2ccccn2)NC3O)[C@H](O)[C@@H]1O (stereo partly drawn)
inhibition at 20 µM (KRas G12D mutant protein; 20 μM compound): 25 to 50%
inhibition at 20 µM (KRas G12C mutant; 20 μM compound): 51 to 75%
inhibition at 20 µM ([1]; 20 μM compound): 25 to 50%
inhibition at 20 µM [2, 6]: 25 to 50%
inhibition at 20 µM (KRas Q61H mutant; 20 μM compound): 51 to 75%
inhibition at 20 µM (KRas wild type; 20 μM compound): 25 to 50%

Cn1cnc(-c2nc(O)c3c(C4C=CC=CC4)c(-c4ccncc4)sc3n2)c1 (stereo not drawn)
inhibition at 20 µM ([1]; 20 μM compound): 1 to 25%
inhibition at 20 µM [2, 6]: 1 to 25%
inhibition at 20 µM (KRas Q61H mutant; 20 μM compound): 1 to 25%

Oc1nc(-c2ccccn2)nc(Oc2cccc(C(F)(F)F)c2)c1O
% Inhibition at 20 μM, KRas G12C (KRas G12C mutant; 20 μM compound): B (B = 25-50% inhibition)

COCCNc1nc(-c2nccn2C)nc2sc(-c3ccccc3)c(-c3ccccc3)c12
inhibition at 20 µM (KRas G12D mutant protein; 20 μM compound): 0%

Cc1sc2c(O)nc(-c3nccn3C)nc2c1-c1ccccc1Cl
inhibition at 20 µM (KRas G12C mutant; 20 μM compound): 1 to 25%
inhibition at 20 µM (KRas wild type; 20 μM compound): 25 to 50%

COCCNc1nc(-c2nccn2C)nc2sc(-c3ccccc3)c(-c3cccnc3)c12
inhibition at 20 µM (KRas G12D mutant protein; 20 μM compound): 25 to 50%
inhibition at 20 µM (KRas G12C mutant; 20 μM compound): 25 to 50%
inhibition at 20 µM (KRas wild type; 20 μM compound): 51 to 75%

COc1ccccc1OCC(=O)Nc1nnc(-c2ccccn2)[nH]1 [drawing 2004]
inhibition at 30 µM [3]: 0%
inhibition at 30 µM [4]: 26 to 50%

CCC(C)c1csc2c(O)nc(-c3ccccn3)nc12 (stereo not drawn) [drawing 2332]
inhibition at 30 µM [3]: 1 to 25%
inhibition at 30 µM [4]: 26 to 50%

COc1ccccc1OCC(=O)Nc1nnc(-c2ccccn2)[nH]1 [drawing 2552]
inhibition at 20 µM ([2]; 20 μM, read-out: KRas G12D Q61H % Inh.): 51 to 75%

CCC(C)c1csc2c(O)nc(-c3ccccn3)nc12 (stereo not drawn) [drawing 3492]
inhibition at 20 µM (KRas G12D mutant protein; 20 μM compound): 25 to 50%
inhibition at 20 µM (KRas G12C mutant; 20 μM compound): 25 to 50%
inhibition at 20 µM ([1]; 20 μM compound): 51 to 75%
inhibition at 20 µM [2, 6]: 51 to 75%
inhibition at 20 µM (KRas Q61H mutant; 20 μM compound): 51 to 75%
inhibition at 20 µM (KRas wild type; 20 μM compound): 25 to 50%
